In ChEMBL document CHEMBL1201862, “PubChem BioAssay data set” (2004):
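All cell lines were grown in 96-well plates and treated with compound for 48 hours. At the GI50, growth is halved.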 The source made the active and inactive calls. Cut-off read from the data, not from the text of the source: active = GI50 up to about 1.1 µM and inactive = higher.

Tests used:
Experiment in all cases: inhibition of tumour cell growth, NCI panel, 48 h
786-0 = tested on: 786-0
A498 = tested on: A498
A549 = tested on: A549
ACHN = tested on: ACHN
COLO 205 = tested on: COLO 205
HL-60 = tested on: HL-60
MOLT-4 = tested on: MOLT-4
Malme-3M = tested on: Malme-3M
NCI-H226 = tested on: NCI-H226
NCI-H522 = tested on: NCI-H522
OVCAR-4 = tested on: OVCAR-4
RPMI-8226 = tested on: RPMI-8226
SW-620 = tested on: SW-620
TK-10 = tested on: TK-10
UACC-257 = tested on: UACC-257
UACC-62 = tested on: UACC-62
UO-31 = tested on: UO-31
OVCAR-5 = tested on: OVCAR-5

Compound | GI50 (786-0) | GI50 (A498) | GI50 (A549) | GI50 (ACHN) | GI50 (COLO 205) | GI50 (HL-60) | GI50 (MOLT-4) | GI50 (Malme-3M) | GI50 (NCI-H226) | GI50 (NCI-H522) | GI50 (OVCAR-4) | GI50 (RPMI-8226) | GI50 (SW-620) | GI50 (TK-10) | GI50 (UACC-257) | GI50 (UACC-62) | GI50 (UO-31) | GI50 (OVCAR-5)
CNS(=O)(=O)NN(C)S(=O)(=O)c1ccc(Br)cc1 | > 100 µM (inactive) | > 100 µM (inactive) | > 100 µM (inactive) | > 100 µM (inactive) | > 100 µM (inactive) | > 100 µM (inactive) | > 100 µM (inactive) | > 100 µM (inactive) | > 100 µM (inactive) | > 100 µM (inactive) | > 100 µM (inactive) | > 100 µM (inactive) | > 100 µM (inactive) | > 100 µM (inactive) | > 100 µM (inactive) | > 100 µM (inactive) | > 100 µM (inactive) | 
Cc1c(/C=N/NC(=O)c2cc(Br)cc(Br)c2O)c(=O)n(-c2ccccc2)n1C | 92 µM (inactive) | > 100 µM (inactive) | > 100 µM (inactive) | 51.1 µM (inactive) | 61.2 µM (inactive) | 2.49 µM (inactive) | 56.1 µM (inactive) | 67.3 µM (inactive) | 90.6 µM (inactive) | 33 µM (inactive) | > 100 µM (inactive) | 85.7 µM (inactive) | 53.7 µM (inactive) | 69.8 µM (inactive) | 35.3 µM (inactive) | 19.6 µM (inactive) | 70.5 µM (inactive) | > 100 µM (inactive)
COC1=CC(=O)C2C(C1=O)[C@@H]1c3ccccc3OC(C)(C)[C@H]21 (stereo partly specified) | 19.1 µM (inactive) | > 100 µM (inactive) | 70 µM (inactive) | 14.2 µM (inactive) | 19.2 µM (inactive) | 16.4 µM (inactive) | 10.1 µM (inactive) | 18.9 µM (inactive) | 19.1 µM (inactive) | 13.9 µM (inactive) | 17.9 µM (inactive) | 26.6 µM (inactive) | 23.6 µM (inactive) | 21.1 µM (inactive) | 29.2 µM (inactive) | > 10 µM (inactive) | 15.2 µM (inactive) | 40.8 µM (inactive)
O=C(CC1C(=O)Nc2ccccc2S1(=O)=O)Nc1cccc(Cl)c1 (stereo unspecified) | 14.1 µM (inactive) | 18.9 µM (inactive) | 20 µM (inactive) | 16.9 µM (inactive) |  | 18.5 µM (inactive) | 11.9 µM (inactive) | 23.7 µM (inactive) | 17.3 µM (inactive) | 16.9 µM (inactive) | 20.1 µM (inactive) | 3.93 µM (inactive) | 17.7 µM (inactive) | 22.3 µM (inactive) | 19.8 µM (inactive) | 15.1 µM (inactive) | 16.6 µM (inactive) | 23.2 µM (inactive)
NC(CCc1ncc(-c2ccccc2)s1)C(=O)O (stereo unspecified) | > 100 µM (inactive) | > 100 µM (inactive) | > 100 µM (inactive) | > 100 µM (inactive) | > 100 µM (inactive) | > 100 µM (inactive) | > 100 µM (inactive) | > 100 µM (inactive) | 17.4 µM (inactive) | > 100 µM (inactive) |  | > 100 µM (inactive) | > 100 µM (inactive) | > 100 µM (inactive) | > 100 µM (inactive) | > 100 µM (inactive) | 45.3 µM (inactive) | 
CCOC(=O)C1=C(O)C(=O)c2cc(C)ccc2C1=O | > 100 µM (inactive) | 21.9 µM (inactive) | 39.4 µM (inactive) | > 100 µM (inactive) | 49.8 µM (inactive) | > 100 µM (inactive) | > 100 µM (inactive) | 65.3 µM (inactive) | 22.2 µM (inactive) | > 100 µM (inactive) | > 100 µM (inactive) | > 100 µM (inactive) | > 100 µM (inactive) | > 100 µM (inactive) | 48 µM (inactive) | 44.1 µM (inactive) | > 100 µM (inactive) | > 100 µM (inactive)
Cc1c(C(=O)CSc2nc3cc([N+](=O)[O-])ccc3[nH]2)c(=O)n(-c2ccccc2)n1C | > 100 µM (inactive) | > 100 µM (inactive) | > 100 µM (inactive) | > 100 µM (inactive) | > 100 µM (inactive) | > 100 µM (inactive) | > 100 µM (inactive) | 49.7 µM (inactive) | > 100 µM (inactive) | > 100 µM (inactive) | > 100 µM (inactive) | > 100 µM (inactive) | > 100 µM (inactive) | > 100 µM (inactive) | > 100 µM (inactive) |  | > 100 µM (inactive) | > 100 µM (inactive)
Cc1c(N2CCOCC2)nc2ccc(Cl)cc2c1-c1ccccc1 | 95.9 µM (inactive) | > 100 µM (inactive) | 43.8 µM (inactive) | 69 µM (inactive) | > 100 µM (inactive) | 34 µM (inactive) | 21.8 µM (inactive) | 60.5 µM (inactive) |  | 30.8 µM (inactive) | 50.7 µM (inactive) | 46.9 µM (inactive) | 66.2 µM (inactive) | > 100 µM (inactive) | > 100 µM (inactive) | > 100 µM (inactive) | > 100 µM (inactive) | 
CCOP(=O)(OCC)/C(C#N)=C\c1ccc(OC(C)=O)cc1 | > 100 µM (inactive) | > 100 µM (inactive) | > 100 µM (inactive) | > 100 µM (inactive) | > 100 µM (inactive) | > 100 µM (inactive) | > 100 µM (inactive) | > 100 µM (inactive) | > 100 µM (inactive) | > 80.2 µM (inactive) | > 100 µM (inactive) | > 100 µM (inactive) | > 100 µM (inactive) | > 100 µM (inactive) | > 100 µM (inactive) | > 100 µM (inactive) | > 100 µM (inactive) | > 100 µM (inactive)
Cc1cc2c(=O)c3ccc(Cl)cc3[nH]c2c(C(N)=O)c1C | > 100 µM (inactive) | > 100 µM (inactive) | > 100 µM (inactive) | > 100 µM (inactive) | > 100 µM (inactive) | > 100 µM (inactive) | > 100 µM (inactive) | > 100 µM (inactive) |  | > 100 µM (inactive) | > 100 µM (inactive) | > 100 µM (inactive) | > 100 µM (inactive) | > 100 µM (inactive) | > 100 µM (inactive) | > 100 µM (inactive) | > 100 µM (inactive) | > 100 µM (inactive)
COC(=O)/C(C#N)=C(\N)C(Cl)(Cl)Cl | 4.11 µM (inactive) | 3.4 µM (inactive) | 3.33 µM (inactive) | 2.37 µM (inactive) | 2.32 µM (inactive) | 0.319 µM (active) | 0.379 µM (active) |  |  | 1.9 µM (inactive) | 2.67 µM (inactive) | 1.57 µM (inactive) | 0.456 µM (active) | 2.55 µM (inactive) | 3.08 µM (inactive) | 1.37 µM (inactive) | 27.1 µM (inactive) | 
CCCN1CN(C(C(=O)N[C@@H]2C(=O)N3C2SC(C)(C)C3C(=O)O)c2ccccc2)CSC1=S (stereo partly specified) | > 100 µM (inactive) | > 100 µM (inactive) | > 100 µM (inactive) | > 100 µM (inactive) | 23.6 µM (inactive) | 48 µM (inactive) | > 100 µM (inactive) | > 100 µM (inactive) |  | 23.1 µM (inactive) | > 100 µM (inactive) | 53.6 µM (inactive) | 16.4 µM (inactive) | > 100 µM (inactive) | > 100 µM (inactive) | > 100 µM (inactive) | > 100 µM (inactive) | > 100 µM (inactive)
COc1cc2c(cc1OC)C(=O)C(C1=C(SC(=N)N)C(=O)c3cc(OC)c(OC)cc31)C2 (stereo unspecified) | > 100 µM (inactive) |  | > 100 µM (inactive) | > 100 µM (inactive) | > 100 µM (inactive) |  | > 100 µM (inactive) | > 100 µM (inactive) | > 100 µM (inactive) | > 100 µM (inactive) | 78.9 µM (inactive) | > 100 µM (inactive) | > 100 µM (inactive) |  | > 100 µM (inactive) | > 100 µM (inactive) | > 100 µM (inactive) | > 100 µM (inactive)
NC(CCSC(F)F)C(=O)O (stereo unspecified) | > 100 µM (inactive) |  | > 100 µM (inactive) | > 100 µM (inactive) | 92.3 µM (inactive) |  | > 100 µM (inactive) | > 100 µM (inactive) | > 100 µM (inactive) | > 100 µM (inactive) | > 100 µM (inactive) |  | > 100 µM (inactive) | > 100 µM (inactive) |  | > 100 µM (inactive) | > 100 µM (inactive) | > 100 µM (inactive)
CCOc1ccc(/C=C/C(=O)c2sc(NNC(C)=O)nc2C)cc1 | > 100 µM (inactive) | > 100 µM (inactive) | > 100 µM (inactive) | > 100 µM (inactive) | > 100 µM (inactive) | > 100 µM (inactive) | > 100 µM (inactive) | > 100 µM (inactive) |  | > 100 µM (inactive) |  | > 100 µM (inactive) | > 100 µM (inactive) | > 100 µM (inactive) | > 100 µM (inactive) | > 100 µM (inactive) | > 100 µM (inactive) | > 100 µM (inactive)
COc1nc2nccc-2c2occn12 | > 100 µM (inactive) | > 100 µM (inactive) | > 100 µM (inactive) | > 100 µM (inactive) | > 100 µM (inactive) |  | > 100 µM (inactive) | > 100 µM (inactive) |  | > 100 µM (inactive) | > 100 µM (inactive) | > 100 µM (inactive) | > 100 µM (inactive) | > 100 µM (inactive) | > 100 µM (inactive) | > 100 µM (inactive) | > 100 µM (inactive) | > 100 µM (inactive)
CCOC(=O)N[C@@H]1C(CC(=O)OC)O[C@H]2OC(C)(C)O[C@H]21 (stereo partly specified) | > 100 µM (inactive) | > 100 µM (inactive) | > 100 µM (inactive) | > 100 µM (inactive) | > 100 µM (inactive) | > 100 µM (inactive) | > 100 µM (inactive) | > 100 µM (inactive) | > 100 µM (inactive) |  | > 100 µM (inactive) | > 100 µM (inactive) | > 100 µM (inactive) |  | > 100 µM (inactive) | > 100 µM (inactive) | > 100 µM (inactive) | > 100 µM (inactive)
